By IC50 is commonly meant the concentration needed to halve the response being measured.

The target of the experiment is T1, Progesterone receptor (Homo sapiens, UniProt P06401).
T1 sequence (P06401 whole entry): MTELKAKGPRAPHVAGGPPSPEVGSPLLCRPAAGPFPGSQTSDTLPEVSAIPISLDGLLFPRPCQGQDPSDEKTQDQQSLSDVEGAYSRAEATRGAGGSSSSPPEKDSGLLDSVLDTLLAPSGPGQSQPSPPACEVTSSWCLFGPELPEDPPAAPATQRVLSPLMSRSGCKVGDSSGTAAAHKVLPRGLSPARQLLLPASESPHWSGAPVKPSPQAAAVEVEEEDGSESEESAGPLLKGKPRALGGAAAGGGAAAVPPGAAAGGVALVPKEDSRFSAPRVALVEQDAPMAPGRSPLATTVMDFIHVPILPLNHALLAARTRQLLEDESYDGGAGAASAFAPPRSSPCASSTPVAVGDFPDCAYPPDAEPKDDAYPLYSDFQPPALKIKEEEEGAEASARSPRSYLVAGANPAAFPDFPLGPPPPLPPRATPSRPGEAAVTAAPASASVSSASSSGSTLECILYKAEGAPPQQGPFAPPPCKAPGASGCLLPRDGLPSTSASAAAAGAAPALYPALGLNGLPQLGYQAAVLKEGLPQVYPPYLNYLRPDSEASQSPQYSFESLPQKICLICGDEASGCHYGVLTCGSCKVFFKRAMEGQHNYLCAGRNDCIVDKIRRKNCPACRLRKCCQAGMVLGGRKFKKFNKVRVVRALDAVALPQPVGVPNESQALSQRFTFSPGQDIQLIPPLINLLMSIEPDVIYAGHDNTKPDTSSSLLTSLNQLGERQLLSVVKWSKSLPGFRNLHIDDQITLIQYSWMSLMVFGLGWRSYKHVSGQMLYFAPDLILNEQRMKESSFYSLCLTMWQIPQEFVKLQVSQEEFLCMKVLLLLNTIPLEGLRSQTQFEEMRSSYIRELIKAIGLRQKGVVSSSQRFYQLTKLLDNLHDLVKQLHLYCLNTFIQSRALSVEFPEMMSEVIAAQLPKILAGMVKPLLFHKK
Kind of experiment: Antagonist activity at progesterone receptor in human MCF cells assessed as estradiol-induced receptor response.
`CC(C)CN1[C@H](c2c(F)cc(/C=C/C(=O)O)cc2F)c2[nH]c3ccccc3c2C[C@H]1C`: the IC50 stood at 0.832 nM.

Take `C[C@]12CC[C@@H]3c4ccc(O)cc4C[C@@H](CCCCCCCCC[S+]([O-])CCCC(F)(F)C(F)(F)F)[C@H]3[C@@H]1CC[C@@H]2O` (some centres undefined): the IC50 was 0.209 nM. With `CC/C(=C(\c1ccc(O)cc1)c1ccc(/C=C/C(=O)O)cc1)c1ccccc1` [GW7604], the IC50 stood at 12 nM. As to `CC/C(=C(\c1ccccc1)c1ccc(/C=C/C(=O)O)cc1)c1ccccc1` [(E)-3-[4-((Z)-1,2-Diphenyl-but-1-enyl)-phenyl]-acrylic acid], the IC50 amounted to 3980 nM. Take `C[C@@H]1Cc2c([nH]c3ccc(O)cc23)[C@@H](c2ccc(Cl)cc2)N1CCO`: the IC50 was determined as 912 nM.

Turning to `C[C@@H]1Cc2c([nH]c3ccccc23)[C@@H](c2ccc(/C=C/C(=O)O)cc2)N1CCO`, the IC50 stood at 2290 nM. As for `C[C@@H]1Cc2c([nH]c3ccccc23)[C@@H](c2ccc(Cl)cc2)N1CCC(=O)O`, the IC50 came out at 1510 nM.

For the molecule `CC(C)CN1[C@H](c2ccc(/C=C/C(=O)O)cc2)c2[nH]c3ccccc3c2C[C@H]1C`, the IC50 came out at 3.6 nM. As for `OCCN1CCc2c([nH]c3ccccc23)C1c1ccc(Cl)cc1` (centres undefined), the figure is 2690 nM.

As to `C[C@@H]1Cc2c([nH]c3ccccc23)[C@@H](c2ccc(/C=C/C(=O)O)cc2)N1CC(C)(C)F`, the IC50 turned out to be 3.5 nM.

Consider `C[C@@H](CO)CN1[C@H](c2ccc(/C=C/C(=O)O)cc2)c2[nH]c3ccccc3c2C[C@H]1C`, for which the IC50 was 50 nM. For `C[C@@H]1Cc2c([nH]c3ccccc23)[C@@H](c2ccc(Cl)cc2)N1CCO`, the 50% inhibitory concentration (IC50) turned out to be 724 nM.

Take `CC/C(=C(\c1ccc(O)cc1)c1ccc(OCCN(C)C)cc1)c1ccccc1` [[3H]4-OHT]: the IC50 was found to be 0.794 nM. As for `C[C@@H]1Cc2c([nH]c3ccccc23)[C@@H](c2ccc(Cl)cc2)N1C[C@H](C)C(=O)O`, the figure is 2090 nM.

The values are drawn from BindingDB's records for doi:10.1021/acs.jmedchem.5b00984 (Astrazeneca, 2015).
